Laboratory results reported in publication PMC10537553, “Synthesis, DFT Study, and In Vitro Evaluation of Antioxidant Properties and Cytotoxic and Cytoprotective Effects of New Hydrazones on SH-SY5Y Neuroblastoma Cell Lines” (Pharmaceuticals, 2023).
Entries after “also recorded” stand apart in the source; their conditions may differ.

Columns and labels:
[1] = MTT cell viability assay (cytotoxicity); assay type: cell-based, human; conditions: human, SH-SY5Y neuroblastoma cells, 1–500 μM, 24 h, MTT
Procedure: (§1) The effects of the newly synthesized N-pyrrolyl-hydrazone derivatives on the cellular viability of neuronal SH-SY5Y cells were evaluated, and the corresponding IC50 values were calculated. In the current study, the cells were seeded at density 2 × 10^4 and were treated with the test compounds at concentrations 1–500 μM for 24 h.
(§2) Human neuroblastoma cell line SH-SY5Y was purchased from European Collection of Cell Cultures (ECACC, Salisbury, UK). SH-SY5Y cells were cultivated in an RPMI 1640 medium supplemented with 10% heat-inactivated FBS, 2 mM L-glutamine, and 1% antibiotics (penicillin/streptomycin). The cell line was incubated at 37 °C with 5% of CO2, and the culture’s medium was replaced with a time interval of 2–3 days.
(§3) The SH-SY5Y cells were plated for 24 h at 37 °C on 96-well plates at a density of 2 × 10^4 cells per well to confluence. After 24 h, the cells were treated with the compounds (1–500 μM). MTT assay was performed to measure the metabolic activity in living cells. The mitochondria succinate dehydrogenase system of living cells metabolized yellow-colored, water-soluble, tetrazolium salt MTT (3-(4,5-dimethylthiazol2-yl)-2,5-diphenyltetrazolium bromide to a purple insoluble formazan crystal. The cells were incubated with the test solutions for 24 h, the MTT solution (10 mg/mL in PBS) was then added to each well, and the mixture was incubated at 37 °C for 3 h. Thereafter, the MTT solution was carefully aspirated, and the obtained formazan crystals were dissolved by the addition of […] DMSO. The cell viability was determined by measuring the optical density −570–690 nm in a multiplate reader Synergy 2 (BioTek Instruments, Inc., Highland Park, Winooski, VT, USA).

[2] = tested on: SH-SY5Y cells; assay: H2O2-induced oxidative stress model, protection by MTT; assay type: cell-based, human; conditions: H2O2 1 mM, 15 min; for protective effect against H2O2-induced oxidative stress (in words): 1, 10, 20 µM pre-incubation 90 min; for protection at the lowest tested concentration (in words): 1 µM pre-incubation 90 min
Procedure: The cells were pre-incubated with the tested compounds at concentrations 1, 10, and 20 µM for 90 min. Melatonin was used as a reference compound because of its well-established neuroprotective effects in various in vitro and in vivo models. After 90 min pre-incubation with the test substances, SH-SY5Y cells were exposed to H2O2 (1 mM, 15 min), as described in the Materials and Methods section.
as §2
For the H2O2-induced oxidative stress model, SH-SY5Y cells were seeded in 96-well plates at a density of 3.5 × 10^4/well in 100 μL for 24 h. Afterwards, the cell medium was aspirated, and the cells were treated with different concentrations of tested compounds (1, 10, 20 µM) for 90 min; then, the SH-SY5Y cells were washed with phosphate-buffered saline (PBS) and were exposed to the oxidative stress (H2O2 1 mM in PBS, 15 min). The contents of all wells were changed with culture medium. After 24 h, the amount of attached viable cells was evaluated by MTT assay. Negative controls (cells without hydrogen peroxide treatment) were considered as 100% protection, and hydrogen-peroxide-treated cells as 0% protection.

[3] = ABTS radical scavenging assay; assay type: biochemical; conditions: for ABTS scavenging activity: 1 mg/mL in methanol, 10 min, 734 nm; for radical scavenging effect (in words): 1 mg/mL, structure-activity discussion of the ABTS/DPPH results
Procedure: During the 2,2′-azino-bis(3-ethylbenzothiazoline-6-sulphonic acid) (ABTS) assay, the discoloration of the initial color could be detected at 734 nm.
The ABTS radical tests were measured according to a modified method of Arnao et al.. The test solutions were dissolved in methanol (1 mg/mL) at ambient temperature. The radical cation of ABTS (ABTS^+•) was created by mixing 7 mmol/L solution of ABTS and 2.4 mmol/L solution of potassium persulphate, which were set to react for 14 h in the dark at room temperature. The working solutions consisted of 2 mL of the stock solution diluted in 50 mL of methanol with an absorbance of […] units at 734 nm. Then, 1 mL of the ABTS working solution was allowed to react with the title compounds for 10 min, with a subsequent absorbance determination. The inhibition percentages were evaluated by applying the same formula as the DPPH assay (4). ABTSscavenging activity = Abscontrol − Abssample/Abscontrol × 100%(4) where Abscontrol is the absorbance of the ABTS radical in methanol, and Abssample is the absorbance of the ABTS radical solution mixed with the sample.

[4] = tested on: SH-SY5Y cells; assay: MTT cell viability assay (cytotoxicity); assay type: cell-based, human
Procedure: as §1, §2, §3

[5] = DPPH radical scavenging assay; assay type: biochemical; conditions: 1 mg/mL in methanol, 30 min, 517 nm
Procedure: The 1,1-diphenyl-2-picrylhydrazyl (DPPH) radical scavenging activity of the newly synthesized derivatives was determined at one concentration—1 mg/mL. Trolox was used as a standard.
The scavenging assay of the title compounds against DPPH radical was carried out by the widely employed protocol of Brand-Williams et al.. Briefly, a single concentration of 1 mg/mL for each synthesized compound in methanol was obtained. Subsequent addition of 1 mL of the methanol solution of DPPH (1 mmol/L) was performed. The reaction mixtures were incubated in the dark for 30 min. The absorbance was measured at 517 nm. Three measurements were carried out for each sample; 6-Hydroxy-2,5,7,8- tetramethylchroman-2-carboxylic acid (Trolox) was applied as a standard. The percentage inhibition of the tested samples was calculated by the following Formula (3):DPPHscavenging activity = Abscontrol − Abssample/Abscontrol × 100%(3) where Abscontrol is the absorbance of the DPPH radical in methanol, and Abssample is the absorbance of the DPPH radical solution mixed with the sample.

Row | melting point [°C] | SMILES | IC50 at 24 h [1] [µM] | protective effect against H2O2-induced oxidative stress (in words) [2] | ABTS scavenging activity [3] [%] | radical scavenging effect (in words) [3] | cytotoxicity (in words) ([4]; 24 h) | protection at the lowest tested concentration (in words) [2] | toxicity relative to 7d (times higher) ([4]; from IC50 values) [times] | DPPH scavenging activity [5] [%]
1 | 214.4 to 217.1 | CCOC(=O)c1cc(-c2ccc(Br)cc2)n(CCC(=O)N/N=C/c2ccc([N+](=O)[O-])cc2)c1C [8c, (E)-ethyl 5-(4-bromophenyl)-2-methyl-1-(3-(2-(4-nitrobenzylidene)hydrazinyl)-3-oxopropyl)-1H-pyrrole-3-carboxylate] | 58.2 | – | – | – | – | – | – | –
2 | 181.4 to 184.6 | CCOC(=O)c1cc(-c2ccc(Br)cc2)n(CCC(=O)N/N=C/c2ccc(Cl)cc2)c1C [8b, (E)-ethyl 5-(4-bromophenyl)-1-(3-(2-(4-chlorobenzylidene)hydrazinyl)-3-oxopropyl)-2-methyl-1H-pyrrole-3-carboxylate] | 57.4 | – | – | – | – | – | – | –
3 | – | COc1ccc2[nH]cc(CCNC(C)=O)c2c1 [Melatonin, reference compound] | > 500 | dose-dependent protective effects | – | – | – | – | – | –
4 | 212 to 213.3 | CCOC(=O)c1cc(-c2ccc(Br)cc2)n(CCC(=O)N/N=C/c2ccc(N(C)C)cc2)c1C [8a, (E)-ethyl 5-(4-bromophenyl)-1-(3-(2-(4-(dimethylamino)benzylidene)hydrazinyl)-3-oxopropyl)-2-methyl-1H-pyrrole-3-carboxylate] | 56.3 | – | 48 | – | – | – | – | –
5 | 170 to 171.9 | CCOC(=O)c1cc(-c2ccc(Br)cc2)n(CCC(=O)N/N=C/c2ccc(OC)cc2OC)c1C [8e, (E)-ethyl 5-(4-bromophenyl)-1-(3-(2-(2,4-dimethoxybenzylidene)hydrazinyl)-3-oxopropyl)-2-methyl-1H-pyrrole-3-carboxylate] | 91.1 | lower antioxidant protection; also recorded: lower than melatonin | – | lack of radical scavenging effects | – | – | – | –
6 | 245.9 to 247.2 | CCOC(=O)c1cc(-c2ccc(Br)cc2)n(CC(=O)N/N=C/c2ccc([N+](=O)[O-])cc2)c1C [7c, (E)-ethyl 5-(4-bromophenyl)-2-methyl-1-(2-(2-(4-nitrobenzylidene)hydrazinyl)-2-oxo-ethyl)-1H-pyrrole-3-carboxylate] | > 500 | most potent protection; also recorded: stronger protective effects | – | – | non-toxic | – | – | –
7 | 229.4 to 231.2 | CCOC(=O)c1cc(-c2ccc(Br)cc2)n(CC(=O)N/N=C/c2ccc(Cl)cc2)c1C [7b, (E)-ethyl 5-(4-bromophenyl)-1-(2-(2-(4-chlorobenzylidene)hydrazinyl)-2-oxoethyl)-2-methyl-1h-pyrrole-3-carboxylate] | 67.6 | – | – | negligible effect | – | – | – | –
8 | 206 to 207.6 | CCOC(=O)c1cc(-c2ccc(Br)cc2)n(CC(=O)N/N=C/c2ccc(OC)cc2OC)c1C [7e, (E)-ethyl 5-(4-bromophenyl)-1-(2-(2-(2,4-dimethoxybenzylidene)hydrazinyl)-2-oxo-ethyl)-2-methyl-1H-pyrrole-3-carboxylate] | 63.1 | – | – | lack of radical scavenging effects | – | statistically significant protection | – | –
9 | 196.6 to 197.6 | CCOC(=O)c1cc(-c2ccc(Br)cc2)n(CCC(=O)N/N=C/c2cc(OC)c(O)c(OC)c2)c1C [8d, (E)-ethyl 5-(4-bromophenyl)-1-(3-(2-(4-hydroxy-3,5-dimethoxybenzylidene) hydrazine-yl)-3-oxopropyl)-2-methyl-1H-pyrrole-3-carboxylate] | 57.3 | – | 89 | – | – | – | 1.7 | 19
10 | 191.9 to 194.4 | CCOC(=O)c1cc(-c2ccc(Br)cc2)n(CC(=O)N/N=C/c2cc(OC)c(O)c(OC)c2)c1C [7d, (E)-ethyl 5-(4-bromophenyl)-1-(2-(2-(4-hydroxy-3,5-dimethoxybenzylidene)hydrazine-yl)-2-oxoethyl)-2-methyl-1H-pyrrole-3-carboxylate] | 99.6 | better protection in all tested concentrations than the reference compound melatonin; also recorded: stronger protective effects | 83 | – | – | statistically significant protection | – | 24
11 | – | Cc1c(C)c2c(c(C)c1O)CCC(C)(C(=O)O)O2 (stereo not drawn) [Trolox, 6-Hydroxy-2,5,7,8-tetramethylchroman-2-carboxylic acid, reference compound] | – | – | – | – | – | – | – | 94
12 | 211.4 to 213.6 | CCOC(=O)c1cc(-c2ccc(Br)cc2)n(CC(=O)N/N=C/c2ccc(N(C)C)cc2)c1C [7a, (E)-ethyl 5-(4-bromophenyl)-1-(2-(2-(4-(dimethylamino)benzylidene)hydrazinyl)-2-oxoethyl)-2-methyl-1H-pyrrole-3-carboxylate] | 55.8 | – | 22 | – | – | – | – | –
